Article PMC4411090, “Activating the Wnt/β-Catenin Pathway for the Treatment of Melanoma – Application of LY2090314, a Novel Selective Inhibitor of Glycogen Synthase Kinase-3” (PLoS ONE, 2015)

Legend:
[1] = target: T1, GSK3β (Homo sapiens, UniProt P49841); test: cell-free kinase assay with recombinant enzyme and phosphopeptide substrate; type: biochemical
T1 construct: gene GSK3B; human recombinant

[2] = target: T2, GSK3α (Homo sapiens, UniProt P49840); test: as above; type: biochemical
T2 construct: gene GSK3A; human recombinant
T2 sequence (P49840 2-483): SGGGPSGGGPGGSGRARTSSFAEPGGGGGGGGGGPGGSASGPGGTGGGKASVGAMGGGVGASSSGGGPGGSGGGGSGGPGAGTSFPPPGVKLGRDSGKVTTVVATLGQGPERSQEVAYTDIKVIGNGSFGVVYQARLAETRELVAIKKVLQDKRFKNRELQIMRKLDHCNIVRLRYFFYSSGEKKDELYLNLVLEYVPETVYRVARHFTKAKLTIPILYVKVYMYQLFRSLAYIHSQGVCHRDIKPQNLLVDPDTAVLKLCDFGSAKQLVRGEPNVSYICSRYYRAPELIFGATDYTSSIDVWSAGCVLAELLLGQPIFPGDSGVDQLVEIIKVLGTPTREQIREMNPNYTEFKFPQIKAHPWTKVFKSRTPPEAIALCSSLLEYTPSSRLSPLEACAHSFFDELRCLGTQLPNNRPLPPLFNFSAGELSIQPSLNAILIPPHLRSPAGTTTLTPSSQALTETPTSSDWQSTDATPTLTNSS

T1 sequence (P49841 whole entry): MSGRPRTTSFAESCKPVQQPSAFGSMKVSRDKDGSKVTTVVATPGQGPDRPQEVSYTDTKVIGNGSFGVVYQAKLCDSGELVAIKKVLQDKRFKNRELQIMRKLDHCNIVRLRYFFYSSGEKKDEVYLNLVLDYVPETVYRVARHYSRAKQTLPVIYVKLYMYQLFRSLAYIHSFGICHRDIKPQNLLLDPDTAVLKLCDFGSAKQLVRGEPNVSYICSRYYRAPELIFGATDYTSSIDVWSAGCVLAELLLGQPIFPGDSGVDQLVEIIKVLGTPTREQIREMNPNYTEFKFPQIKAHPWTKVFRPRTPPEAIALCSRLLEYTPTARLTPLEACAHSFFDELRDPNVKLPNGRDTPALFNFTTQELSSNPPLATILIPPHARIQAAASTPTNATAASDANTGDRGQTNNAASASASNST

With `O=C1NC(=O)C(c2cnc3ccccn23)=C1c1cn2c3c(cc(F)cc13)CN(C(=O)N1CCCCC1)CC2` [LY2090314] the IC50 [1] was 0.9 nM and the IC50 [2] was 1.5 nM.
